pEC50: −log10 of the molar value. Active and inactive are the calls of the source. The calls are words filed in the database; no cut-off is given here. Starred links: 1 amine or outer side, 2 acyl side, 3 side chain; linkers in the order of their positions; H or OH if unused. Non-standard residues stand in square brackets, D forms with d. Residues, ends and D or L forms follow the SMILES beside them. X1 = C[C@@]12Nc3ccccc3[C@]1(O)C[C@@H](C(=O)[*:2])N2[*:1]; Kyn = Nc1ccccc1C(=O)C[C@H](N)C(=O)O
Columns and labels:
3T3-L1 [1] = assay: Anti-adipogenic activity against mouse 3T3-L1 cells assessed as decrease in triglyceride level at 1 to 100 uM by Oil Red O staining based analysis; format: functional, cell-based; settings: dose 1-100 µM
3T3-L1 [2] = assay: Cytotoxicity against mouse 3T3-L1 cells assessed as cell viability incubated for 48 hrs by MTT assay; format: toxicity, cell-based; settings: 3t3-l1, 48 h
3T3-L1 [3] = assay: Anti-adipogenic activity against mouse 3T3-L1 cells assessed as decrease in triglyceride level by Oil Red O staining based analysis; format: functional, cell-based

| Compound | Activity (3T3-L1 [1]) | Activity (3T3-L1 [2]) | pEC50 (3T3-L1 [3]) |
| --- | --- | --- | --- |
| CC(C)C[C@@H]1NC(=O)[C@@H]2CCCN2C(=O)[C@H](Cc2ccccc2)NC(=O)[C@@H]2CCCN2C(=O)[C@H](C)NC(=O)[C@@H]2CCCN2C(=O)[C@H](Cc2ccc(O)cc2)NC1=O (cyclo(APFPLYP)) | Active | Non-Toxic |  |
| CC(C)C[C@@H]1NC(=O)[C@@H]2CCCN2C(=O)[C@H](Cc2ccccc2)NC(=O)[C@@H]2CCCN2C(=O)[C@H](C)NC(=O)[C@H](Cc2ccc(O)cc2)NC(=O)[C@@H]2CCCN2C(=O)[C@H](Cc2ccc(O)cc2)NC1=O (cyclo(APFPLYPY)) | Active | Non-Toxic |  |
| CC[C@H](C)[C@@H]1NC(=O)[C@H](Cc2c[nH]c3ccccc23)NC(=O)[C@@H]2CCCN2C(=O)CNC(=O)[C@H](Cc2ccc(O)cc2)NC(=O)CNC(=O)[C@H](C(C)C)NC(=O)[C@H](C)NC1=O (cyclo(AVGYGPWI)) | Active | Non-Toxic |  |
| CC(C)C[C@@H]1NC(=O)[C@H](Cc2ccc(O)cc2)NC(=O)[C@@H]2CCCN2C(=O)[C@H](Cc2ccccc2)NC(=O)CNC(=O)[C@@H]2CCCN2C1=O (cyclo(FPYLPG)) | Active | Non-Toxic | 5.93 |
| O=C1CNC(=O)[C@@H]2CCCN2C(=O)[C@H](Cc2c[nH]c3ccccc23)NC(=O)[C@H](Cc2ccc(O)cc2)NC(=O)[C@@H]2CCCN2C(=O)[C@H](Cc2ccccc2)N1 (cyclo(FPYWPG)) | Active | Non-Toxic |  |
| Nc1ccccc1C(=O)C[C@@H]1NC(=O)[C@H](Cc2ccc(O)cc2)NC(=O)[C@@H]2CCCN2C(=O)[C@H](Cc2ccccc2)NC(=O)CNC(=O)[C@@H]2CCCN2C1=O (cyclo(FPY[Kyn]PG)) | Active | Non-Toxic |  |
| C[C@@]12Nc3ccccc3[C@]1(O)C[C@H]1C(=O)N3CCC[C@H]3C(=O)NCC(=O)N[C@@H](Cc3ccccc3)C(=O)N3CCC[C@H]3C(=O)N[C@@H](Cc3ccc(O)cc3)C(=O)N12 (cyclo(FPY[X1]PG)) | Active | Non-Toxic |  |
| O=C1CNC(=O)[C@@H]2CCCN2C(=O)[C@H](Cc2c[nH]c3ccccc23)NC(=O)[C@H](Cc2ccc(O)cc2)NC(=O)[C@@H]2CCCN2C(=O)CN1 (cyclo(GGPYWP)) | Active | Non-Toxic |  |
| CC(C)C[C@@H]1NC(=O)[C@H](CO)NC(=O)[C@@H]2CCCN2C(=O)[C@H](CC(C)C)NC(=O)[C@@H]2CCCN2C(=O)[C@H](CO)NC(=O)CNC(=O)[C@H](Cc2c[nH]c3ccccc23)NC1=O (cyclo(GSPLPSLW)) | Active | Non-Toxic |  |
| CC(C)C[C@@H]1NC(=O)[C@@H]2CCCN2C(=O)[C@H](CO)NC(=O)CNC(=O)[C@@H]2C[C@@]3(O)c4ccccc4N[C@@]3(C)N2C(=O)[C@H](CC(C)C)NC(=O)[C@H](CO)NC(=O)[C@@H]2CCCN2C1=O (cyclo(GSPLPSL[X1])) | Active | Non-Toxic |  |

Source: ChEMBL document CHEMBL5634185, “Drymariamides A-J, Antiadipogenic Cyclopeptides Incorporating Noncanonical Amino Acids from Drymaria cordata” (J Nat Prod, 2024)
